# B1: Ts_Ram106B (Thermoclostridium stercorarium subsp. stercorarium DSM 8532) (protein)
# chain: MFFKNSREEFDESLFRNPTSEYRCAPFWAWNKKLDWEDMERHIEIFKEMGMGGFHIHSRIGLNTPYLSDEFLDYVKKCNAKAKELGMLTWLYDEDKWPSGFGGGFVTKDHNFRSRYLLFSPFYHQSGYYERHIPRENRLGIDGYLSLIAEYKVVLKNGYLSSYKRIESGDNDSAEGETWYAYRVISGDLPWFNNQAYVDTLNKKAVEKFIEVTHEKYFEILGGEFSKSVPAVFTDEPQFVLKQNLPEPDSRQEVGIPYTDLFEESFRQRFGCSFLDSLPEIFWELEGGKFSRIRYWYHEHIAELFASSFADTVGRWCREHNLMLTGHMMAESTLESQTRALGEAMRSYRSFDLPGVDILANKYEYSTVKQAQSVARQFGKAGVLSELYGVTNWDFDFRGHKLQGDWQAAMGVSVRVPHLSWLGMGGESKRDYPAPVDYHSPWYKKYHIIEDHFSRVNVCMTRGVPCVNIAVIHPIESYWLLWGPDSQTKQKRLKLQQEFESIIDWLLFSNLDFDFIAESMVKELYRGSGNRHTQFGDMKYEVLIVPELITIRSETVKMLINHLENGGKVIILGNLPKIIDGDSDRKFDIECLGECVINNSKYDLLDALEPFRQIDIVNRDSSRNENYLYQLRDEAECKWLFIAPGKPVEALKLPEEKVLTVKVRGSYEVWRYDTFTGEKQKIQARGKDGWTYFEQTAYEHDSFLYRLLKTGTNDTTEKSVSSGVGRQVNKGVKYIKYLNGPWEYRLSEKNVLLLDMARYSLDNGEISEREEVLRIDDKIRTKLGYPLRTDSFPQPWLSPAEAECPHTVKLYFEIESETDVHEAELAFEGKGVTAEWNNVAVTDRADGFFIDKCFNVMKLPGIKKGVNQLVLTVPFGEKTDLEWCFITGNFGTCVKGDKVIITNPPERLFFGDVTRQGLSFYGGNITYIVNIDVPEGEMTVEIPQYRGALVEVALDNAKKGDIIFSPYRLNLGYVSQGEHTIEITLYGNRFNMFGQLHNCNRVEKYYGPNTWRTKGNAFAYEYQLREFGIIAAPLIYIE
# B2: Tn_Ram106B (Thermotoga neapolitana DSM 4359) (protein)
# chain: MNLKDLENPGVWYRPAPFWSWNDKLCEEELLRQIDEMCEKGYGGFFMHSRVGLVTEYLSDEWMALVKRCAEHARKLGMLAWLYDEDKWPSGFAGGIVPLESDEYRHRFLVLLKKEQIEPGDEILKRIERGNEELFVVKRTMKLGDPWFNGTCYVDLLSKKVTEAFIRSTHEKYRKVCGEFFGSSIPGIFTDEPTYLRVHYPEIPTLPWTDRFPEEFLKRKGYDIREHFEELFFNTKDYMKVRYDFFDVATELFIENFTIPYAKWCEENGISMTGHYMAEDTLRGQVEWIGAAMPHYEYMQIPGVDKLARHLEQVITIKQVSSVAEQLRKKWVLCETFGTTGQHVSFLHRKWIADWQAVLGITYINPHLSLYSMRGERKRDYPPNLFYQQPWWKNEKRFSDYLARLNYLMTQGKREVKVLMIHPITSAWCVYSKFDDEIDKLNESFDRTVKELVSNKIDFHFGDETILSKHGRVSGEKLVVGNCEYDIVLVPPLLNLRRSTVDLLNEFSKNGGKILVLKDGNFFPERVEGRKEKPEFLKRARVFEDLQGLIDSLRDVAAVEVIDKKTGKNAKSVIAQKRLLENGSYIIFLANTDINREVHCQLNLKEEKRHIYAIDIFDFAVVEFSEREFTMHPASSLLIWVTDEEIPSQRRSVISTGVTLKREFELEMAFSEFETEMNGFNVLPVDRVDMFEADGKVFRDEYVSKIWYEFYRLPEGTPFGVVYSFEIREKPEKLFLVVECAENLDRITVNGHEAVFKKKGCTFTEEECFLDVNFGKMDITELVQVGKNIVVLEGKKSNNITGPGCHERVKNPENHRPTEVETIYLVGKFSLVNVDETKYVIDAPKTPDHKDITRSGYPFYVGSFTLRKTFEMKKDPKRRYFLKLNSVRAASVEVFLNEKFVGSLFWEPFMVEITDNLHDGKNELKLVLTNTLFNLIEANHKADVLEETFRRPWSFIDFEHHTDRYILLPFGLENAAVLSSFSP
# B3: Tm_Ram106B (Thermotoga maritima MSB8) (protein)
# chain: MNLKDLENPGVWYRPAPFWSWNDKLCEEELLRQIDEMYEKGYGGFFMHSRVGLVTEYLSEEWMRLVRSCAEHARKLGMLAWLYDEDKWPSGFAGGIVPLEKPEHRHKYLTLLKKDQIKPEDEILKKIERDGEEFYVVKRVMKLGDPWFNGTCYVDLLSRETTEAFLRSTHERYKKSCGDLFRVSIPGIFTDEPTYLRVHHPKETTLPWTERFPEEFLRRKGYDIRDHLEELFFNVKDYMKVRYDFFDVATSLFIENFTIPYAKWCEENGIFMTGHYMAEDTLRGQVEWIGAAMPHYEYMQIPGIDKLARHLEQVVTIKQVSSAAEQLGKKWVLCETFGTTGQHVSFLHRKWIADWQAVLGVTYINPHLSLYSMRGERKRDYPPNLFYQQPWWKNERFLSDYFARLNHIVTQGKREVKVLMIHPISSAWCVYSKFDDEIDKLNELFDTITKELVANKIDFHFGDEMILSKHGRVKEAKLRVGEYEYEVVVLPPLLNLKSSTVELLNSLAENGGKVFVLKDFRYGRFFPERVEGKKGRIEFLKKARVFETLEDLIEELKPFFSVDVLDTKTKENAKAVIAQKRVLEDGSYLLFLANTDIDREVHCHLELKEKRKHTYAIDLFNFKLVELKENEFVMFPASSVCIWVTDEEVPAEDEKVVSTGVLLEKEFDFETALNDFEVKMNSFNVLPVDRVEYFEAGGRVFRNEFVSKIWYEFYRLPDGTPFRVEYSFEVRKKPQKLFLVVECAENLDRITVNGREVRYERKSCIFNEEQNFLDVNFGKMEITDLVREGKNTVVLEGRKENNITGPGCHTRVKDPENHRPTEVETIYLVGDFSLVNVDETRYVIDAPKIPDHRDITRDGYPFYVGSFTLKKIFECKKDPGKRYFLKLNGVEAASVEVILNGKFLGVLFWRPFMIDITDALRNGKNELQLVLTNTLFNLIEANHKADVLEETFRRPKSFIDFEHHTDRYILLPFGLENVAVLSSSSR
# Key:
# Cb_Ram106B [1] = target: T1, Cb_Ram106B (Caldicellulosiruptor bescii, UniProt B9MP87); assay: pNP release, absorbance at […] nm, Hill fit; assay type: biochemical; conditions: Kprime = Khalf^h, Hill coefficient h = 1.64 ± 0.20; 1 mM CoCl2, 100 mM MOPS pH 7 (RT), 70 °C
# T1 construct: gene Athe_2581
# Ts_Ram106B [2] = target: T2, Ts_Ram106B (Thermoclostridium stercorarium, UniProt L7VK28); assay: product inhibition of pNPR hydrolysis, pNP absorbance at […] nm; assay type: biochemical; conditions: read-out: IC50 (at Km or Kprime)
# T2 construct: gene Cst_c00400
# Tn_Ram106B [3] = target: T3, Tn_Ram106B (Thermotoga neapolitana, UniProt B9K9N8); assay: as above; assay type: biochemical; conditions: read-out: IC50 (at Km or Kprime)
# T3 construct: gene CTN_1495
# Tm_Ram106B [4] = target: T4, Tm_Ram106B (Thermotoga maritima, UniProt Q9X0G3); assay: as above; assay type: biochemical; conditions: read-out: IC50 (at Km or Kprime)
# T4 construct: gene TM_1074
# Cb_Ram106B [5] = target: T1, Cb_Ram106B; assay: as above; assay type: biochemical; conditions: read-out: IC50 (at Km or Kprime)
# Tn_Ram106B [6] = target: T3, Tn_Ram106B; assay: as above; assay type: biochemical; conditions: read-out: Ki^b, α^b (mM rhamnose)
# Tm_Ram106B [7] = target: T4, Tm_Ram106B; assay: as above; assay type: biochemical; conditions: read-out: Ki^b, α^b (mM rhamnose)
# Ts_Ram106B [8] = target: T2, Ts_Ram106B; assay: as above; assay type: biochemical; conditions: read-out: Ki^b, α^b (mM rhamnose)
# purified protein [9] = substrate: C[C@@H]1O[C@@H](Oc2ccc([N+](=O)[O-])cc2)[C@H](O)[C@H](O)[C@H]1O; assay: purified protein; assay type: biochemical, Thermoclostridium stercorarium; conditions: 1 mM CoCl2, 100 mM MOPS pH 7 (RT), 55 °C
# purified protein [10] = substrate: C[C@@H]1O[C@@H](Oc2ccc([N+](=O)[O-])cc2)[C@H](O)[C@H](O)[C@H]1O; assay: purified protein; assay type: biochemical, Thermotoga neapolitana; conditions: 1 mM CoCl2, 100 mM MOPS pH 7 (RT), 80 °C
# purified protein [11] = substrate: C[C@@H]1O[C@@H](Oc2ccc([N+](=O)[O-])cc2)[C@H](O)[C@H](O)[C@H]1O; assay: purified protein; assay type: biochemical, Thermotoga maritima; conditions: 1 mM CoCl2, 100 mM MOPS pH 7 (RT), 80 °C
# T1 sequence (B9MP87 entry or part of it): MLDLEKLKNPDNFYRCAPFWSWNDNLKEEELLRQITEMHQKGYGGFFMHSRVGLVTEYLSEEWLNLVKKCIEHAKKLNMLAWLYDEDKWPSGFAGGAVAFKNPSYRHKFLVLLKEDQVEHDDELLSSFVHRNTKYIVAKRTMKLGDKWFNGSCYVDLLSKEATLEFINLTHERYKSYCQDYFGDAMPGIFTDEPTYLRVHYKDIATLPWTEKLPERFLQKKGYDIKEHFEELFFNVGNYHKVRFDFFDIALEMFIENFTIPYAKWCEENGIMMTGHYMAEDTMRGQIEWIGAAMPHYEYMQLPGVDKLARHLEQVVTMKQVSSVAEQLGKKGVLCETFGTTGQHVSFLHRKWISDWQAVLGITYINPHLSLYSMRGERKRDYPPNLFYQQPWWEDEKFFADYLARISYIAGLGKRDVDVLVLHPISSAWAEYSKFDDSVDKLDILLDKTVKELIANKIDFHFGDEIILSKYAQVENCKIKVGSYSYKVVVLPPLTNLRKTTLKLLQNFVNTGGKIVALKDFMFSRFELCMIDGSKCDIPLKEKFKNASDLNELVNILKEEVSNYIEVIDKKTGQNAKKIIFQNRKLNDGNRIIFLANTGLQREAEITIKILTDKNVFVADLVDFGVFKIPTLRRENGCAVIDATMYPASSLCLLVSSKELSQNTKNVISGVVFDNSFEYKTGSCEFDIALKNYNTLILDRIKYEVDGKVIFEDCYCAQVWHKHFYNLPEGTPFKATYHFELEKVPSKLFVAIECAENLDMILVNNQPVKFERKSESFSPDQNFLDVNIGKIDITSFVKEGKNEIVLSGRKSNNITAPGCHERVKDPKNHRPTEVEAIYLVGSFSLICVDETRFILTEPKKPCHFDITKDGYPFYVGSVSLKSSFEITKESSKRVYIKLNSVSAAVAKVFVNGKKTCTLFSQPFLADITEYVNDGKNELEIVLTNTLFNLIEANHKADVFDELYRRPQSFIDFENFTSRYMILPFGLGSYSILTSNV
molecule,measurement,setting,value
"C[C@@H]1O[C@@H](Oc2ccc([N+](=O)[O-])cc2)[C@H](O)[C@H](O)[C@H]1O [pNPR, para-nitrophenyl-α-L-rhamnopyranoside]","Km or Kprime, h^b,c",Cb_Ram106B [1],1290 ± 230 µM
C[C@@H]1O[C@@H](O)[C@H](O)[C@H](O)[C@H]1O [rhamnose],IC50,Ts_Ram106B [2],8.3 mM
same,IC50,Tn_Ram106B [3],6.5 mM
same,IC50,Tm_Ram106B [4],4.9 mM
same,IC50,Cb_Ram106B [5],5.5 mM
same,Ki,Tn_Ram106B [6],5.5 ± 1.01 mM
same,Ki,Tm_Ram106B [7],2.37 ± 0.13 mM
same,Ki,Ts_Ram106B [8],4.94 ± 0.75 mM
B1,K0.5,purified protein [9],1.90 ± 0.18 mM
same,kcat,purified protein [9],14.3 ± 0.5 s⁻¹
B2,K0.5,purified protein [10],1.47 ± 0.14 mM
same,kcat,purified protein [10],146.8 ± 6.1 s⁻¹
B3,K0.5,purified protein [11],1.94 ± 0.20 mM
same,kcat,purified protein [11],217.8 ± 10.1 s⁻¹
